Data reported in patent US20210361767A1, “RESCUING CANCER PATIENTS FROM RESISTANCE TO TREATMENT WITH INHIBITORS OF PD-1/PD-L1 INTERACTIONS” (Mayo Foundation for Medical Education and Research, priority 2018, published 2021).

Columns and labels:
Type in all cases: cell-based
PD-L1 mRNA = PD-L1 mRNA expression by RT-PCR in Karpas-299 cells; settings: Karpas-299, TAPI-2 at 278 μM, 24 hours; data not shown
Karpas-299 cells [1] = assay: sPD-L1 ELISA of supernatants of Karpas-299 cells treated with protease inhibitors
Procedure: (§1) Several tumor cell lines were treated with PBS (placebo) or with various protease inhibitors, including matrix metalloprotease inhibitors TAPI-2 and TAPI-0, aspartic protease inhibitor Pepstatin, cysteine protease inhibitor E-64, serine protease inhibitor Aprotinin, combinations of these inhibitors, and an array of other matrix metalloprotease inhibitors. Cell supernatants were queried for sPD-L1 by ELISA as published elsewhere (Frigola et la., supra). In brief, paired mouse IgG2 monoclonal antibodies against extracellular rhB7-H1 were utilized in a capture-detection plate assay using biotinylation and HRP-streptavidin detection. […] Concentrations were determined by optical density measurements along a known standard curve of rhB7-H1. Karpas-299 cells were incubated at 10 MM cells per ml in cell culture media (RPMI plus FBS plus Penicillin/Streptomycin plus buffering reagents) over 24 hours in the presence of 1 μl/100 μl DMSO or PBS (placebo), TAPI-2 at 278 μM, Pepstatin at 206.5 μM, E-64 at 185 μM, or Aprotinin at 220 μM, or a combination of the above materials at various concentrations. […] All statistical analyses were performed using R! software. Two-sided, unpaired Student t tests assessed statistical differences in experimental groups except where otherwise indicated. P values indicate comparison to vehicle control groups. P<0.05 was considered statistically significant.
Subsequent studies were conducted in which Karpas-299 cells were incubated with different matrix metalloprotease inhibitors with varying specificities. For example, Karpas-299 cells were incubated at 10 MM cells per ml in cell culture media over 24 hours in the presence of 1 μl/100 μl DMSO (control), 50 μM TAPI-2, 50 μM TAPI-0, 50 μM GI254023X, 5 μM Ro 32-3555, 5 μM ARP 101, 50 μM UK 370106, 500 pM MMP-9 inhibitor I, 5 μM Doxycycline, or some combination thereof.
Aderbasib is a selective inhibitor of matrix metalloproteases ADAM10 and ADAM17. Karpas-299 cells were incubated at 1 MM-10 MM cells/ml and treated for 24 hours with concentrations of aderbasib ranging from 320 pM to […].
Karpas-299 lymphoma cells producing sB7-H1 were cultured with an array of protease inhibitors. Supernatants from these cultures were isolated and analyzed for sB7H1 concentration by ELISA. Subsequently, activated human CD8+ T cells were cultured with recombinant sB7H1 protein and cell survival was measured at 24 hours. CD8+ T cells also were cultured with sB7H1-rich tumor cell line supernatants versus sB7H1-depleted supernatants over 48 hours in the presence of placebo, low dose (10 nM), or high dose (1 μM) anti-PD-1 antibody pembrolizumab, and cell survival was measured.

[2] = tested on: A786-0 (renal cell carcinoma) cells; assay: sPD-L1 ELISA of supernatants of A786-0 cells treated with protease inhibitors; settings: A786-0 grown between 1 MM and 10 MM cells per ml; FIG. 4B
Procedure: Tumor cells were treated with PBS (placebo) or with various protease inhibitors, including MMP inhibitors TAPI-2 and TAPI-0, aspartic protease inhibitor Pepstatin, cysteine protease inhibitor E-64, serine protease inhibitor Aprotinin, combinations of these inhibitors, and an array of other MMP inhibitors. Cell supernatants were queried for sPD-L1 by ELISA. FIG. 4A, Karpas-299 (lymphoma) cells were treated with the indicated protease inhibitors. FIG. 4B, A786-0 (renal cell carcinoma) cells were treated with the indicated protease inhibitors. FIG. 4C, Dul45 cells were treated with the indicated protease inhibitors. FIG. 4D, Mel-B7H1 (transgenic melanoma) cells were treated with the indicated protease or metalloprotease inhibitors. FIG. 4E is a graph plotting sPD-L1 production induced by interferon treatment or high cell titer in A786-0 cells. Cells grown at 1 MM/ml in control DMSO produced little sPD-L1. […] FIG. 4F is a graph plotting the amount of sPD-L1 in supernatants of Karpas-299 cells treated with control or with varying concentrations of the ADAM10/17 inhibitor aderbasib.
Several tumor cell lines were treated with PBS (placebo) or with various protease inhibitors, including matrix metalloprotease inhibitors TAPI-2 and TAPI-0, aspartic protease inhibitor Pepstatin, cysteine protease inhibitor E-64, serine protease inhibitor Aprotinin, combinations of these inhibitors, and an array of other matrix metalloprotease inhibitors. Cell supernatants were queried for sPD-L1 by ELISA as published elsewhere (Frigola et la., supra). In brief, paired mouse IgG2 monoclonal antibodies against extracellular rhB7-H1 were utilized in a capture-detection plate assay using biotinylation and HRP-streptavidin detection. […] Concentrations were determined by optical density measurements along a known standard curve of rhB7-H1. […] Two-sided, unpaired Student t tests assessed statistical differences in experimental groups except where otherwise indicated. […]

[3] = tested on: Mel-B7H1 (transgenic melanoma) cells; assay: sPD-L1 ELISA of supernatants of Mel-B7H1 cells; settings: FIG. 4D
Procedure: as §1, with “significant. […]” for “significant.”

A549 cells = assay: PD-L1 flow cytometry of A549 cells; settings: vs DMSO, FIGS. 7C, 7D
Procedure: (§2) FIGS. 7A and 7B are flow cytometry plots and graphs showing that cell PD-L1 expression is restored by treatment with an inhibitor of ADAM10 and/or ADAM17, and is decreased by treatment with exogenous recombinant ADAM10 or ADAM17. Cells were incubated in the presence of the indicated treatments, and PD-L1 flow cytometry was performed.

Karpas-299 cells [4] = assay: PD-L1 flow cytometry of Karpas-299 cells; settings: vs DMSO, FIGS. 7A, 7B
Procedure: as §2

[5] = tested on: Dul45 prostate cancer cells; assay: sPD-L1 ELISA of supernatants of Dul45 prostate cancer cells; settings: FIG. 4C
Procedure: as §1
Further studies were conducted using different types of cells.

In the case of `CC(C)C[C@H](CC(=O)NO)C(=O)N[C@H](C(=O)N[C@@H](C)C(=O)NCCN)C(C)(C)C` [TAPI-2], the “PD-L1 mRNA expression (RT-PCR)” value (PD-L1 mRNA) was “without reducing PD-L1 mRNA expression”, the “Karpas-299 production of sB7H1” value (Karpas-299 cells [1]; Example 3, supernatants by ELISA, p<0.0001) was “inhibited” and the “secretion of sPD-L1” value (Karpas-299 cells [1]; Karpas-299, 10 MM cells per ml, 24 hours, TAPI-2 at 278 μM, vs DMSO or PBS, FIG. 4A, p=5.6×10^−12) was “reduced the secretion of sPD-L1”. The sPD-L1 secretion [2] was “significantly reduced”, the sPD-L1 expression [3] was “most significantly reduced” and the “PD-L1 expression (flow cytometry)” value (A549 cells) was “restored”. The “PD-L1 expression (flow cytometry)” value (Karpas-299 cells [4]) was “restored” and the “sPD-L1 secretion versus controls” value [5] was “significantly reduced”.
